Columns and labels:
[1] = system: Escherichia coli AB 1157; test: paper disk antibacterial test, Escherichia coli AB 1157; format: cell-based; settings: 20 μg/disc
Method: (§1) Methanol solution of each tested substance with specific concentration was sunk on a paper disk with diameter of 8 mm (Thick, Toyo-roshi) and dried, which was placed on a plate of each bacterium. After culture under the conditions suitable for each bacterium, the diameter of cell growth was measured, The results are shown in Table 4, 5 and 6.

[2] = system: peptidoglycan synthesis; test: inhibitory activity on peptidoglycan synthesis (crude enzyme, UDP-[3H]GlcNAc incorporation); format: biochemical, Escherichia coli; settings: 0.1 μg/ml
Method: Crude enzyme and substrate UDP-MurNAc-pentapeptide were prepared from Escherichia coli and Bacillus subtilis respectively according to a reference (J. Biol. Chem., 243, 3180 (1968)). Enzymatic reaction was carried out by mixing 5 μl of 1M Tris-HCl (pH 7.5), 10 μl of 0.1M MgCl2, 5 μl of 2 mM UDP-MurNAc-pentapeptide, 5 μl of enzyme solution(15 mg/ml protein concentration), 5 μl of sample, 5 μl of UDP-[U-^3H]GlcNAc (10 μCi/ml, 25.8 Ci/mmol., Du'pont) and 15 μl of water at 37° C. for 60 minutes and […]. After ice-cooling, it was trapped on a GF/C glass filter(2.4 cm, Whatman). And after adding scintillator thereto, radiation thereof was counted. Inhibitory % was calculated by comparing the count of control.

[3] = system: Bacillus subtilis IFO 3513; test: paper disk antibacterial test, Bacillus subtilis IFO 3513; format: cell-based; settings: 20 μg/disc; for the diameter of cell growth inhibition zone: ( ) represents partial inhibition
Method: as §1

[4] = system: Escherichia coli BE 1186; test: paper disk antibacterial test, Escherichia coli BE 1186; format: cell-based; settings: 20 μg/disc, ( ) represents partial inhibition
Method: as §1

[5] = system: BALB/3T3 cells; test: cytotoxicity test (MTT); format: cell-based; settings: 3 days culture
Method: BALB/3T3 cells (100 μl) were inoculated into 10% FBS added DMEM medium (Gibco) in 96 well plate so as to be 1×10^5 cells/ml under 5% CO2 at 37° C., which was cultured overnight. The test substance dissolved in methanol was added thereto, which was cultured for more 3 days and further kept cultured for 4 hours after adding 10 μl of 2.5 mg/ml MTT reagent (Sigma). After removing supernatant, 100 μl of DMSO was added thereto and kept it overnight. The absorbance thereof at 540 nm was determined to detect viable cells.

[6] = system: Staphylococcus aureus IFO 12732; test: paper disk antibacterial test, Staphylococcus aureus IFO 12732; format: cell-based; settings: 20 μg/disc
Method: as §1

[7] = system: Candida albicans IFO 5994; test: paper disk test, Candida albicans IFO 5994; format: cell-based; settings: 20 μg/disc
Method: as §1

[8] = system: Mycobacterium phlei IFO 3158; test: paper disk antibacterial test, Mycobacterium phlei; format: cell-based; settings: for The diameter of cell growth inhibition zone against M. Phlei: 2 μg/disc; for the diameter of cell growth inhibition zone: Mycobacterium phlei IFO 3158, 20 μg/disc
Method: as §1

Q: `CCCCCC=CCC=CCCCC(CC(=O)OC1CN(C)C(C(OC2OC(CN)C(O)C2O)C2OC(n3ccc(=O)[nH]c3=O)C(O)C2O)C(=O)N(C)C1C(=O)O)OC(=O)CC(C)CC(=O)O` (centres unmarked) [Liposidomycins A-(III)] was tested. Which “the diameter of cell growth inhibition zone” value [1] did it give?
A: Its value is 0 mm.

Q: What about the “Inhibitory activity on peptidoglycan synthesis” value [2] of the same compound?
A: Its value is 96%.

Q: What about the “the diameter of cell growth inhibition zone” value [3] of the same compound?
A: The value was 21.0 mm.

Q: And the “the diameter of cell growth inhibition zone” value [4]?
A: Its value is 17.8 mm.

Q: What about the “Cytotoxicity against BALB/3T3 (IC50)” value [5] of the same compound?
A: Its value is greater than 25 µg/mL.

Q: What about the “the diameter of cell growth inhibition zone” value [6] of the same compound?
A: Its value is 0 mm.

Q: And the “the diameter of cell growth inhibition zone” value [7]?
A: Its value is 0 mm.

Q: And the “The diameter of cell growth inhibition zone against M. Phlei” value ([8]; Table 5)?
A: The value was 11.62 mm.

Q: And the “The diameter of cell growth inhibition zone against M. Phlei” value ([8]; Table 6)?
A: The value was 14.3^− mm.

Q: What about the “the diameter of cell growth inhibition zone” value [8] of the same compound?
A: Its value is 24.8 mm.

Q: What does the source list for `CCCCCC=CCC=CCCCCCC(CC(=O)OC1CN(C)C(C(OC2OC(CN)C(O)C2O)C2OC(n3ccc(=O)[nH]c3=O)C(O)C2O)C(=O)N(C)C1C(=O)O)OC(=O)CC(C)CC(=O)O` (centres unmarked) [Liposidomycins K-(III)]?
A: the diameter of cell growth inhibition zone [1]: 0 mm; the diameter of cell growth inhibition zone [3]: 13.0 mm; the diameter of cell growth inhibition zone [4]: 13.5 mm; the diameter of cell growth inhibition zone [6]: 0 mm; the diameter of cell growth inhibition zone [7]: 0 mm; The diameter of cell growth inhibition zone against M. Phlei ([8]; Table 5): 12.27 mm; the diameter of cell growth inhibition zone [8]: 23.3 mm

Q: `CCCCCCCCCCCCCC(CC(=O)OC1CN(C)C(C(OC2OC(CN)C(O)C2OS(=O)(=O)O)C2OC(n3ccc(=O)[nH]c3=O)C(O)C2O)C(=O)N(C)C1C(=O)O)OC(=O)CC(C)CC(=O)O` (centres unmarked) [Liposidomycins M] was tested. Which “the diameter of cell growth inhibition zone” value [1] did it give?
A: The value was 0 mm.

Q: And the “the diameter of cell growth inhibition zone” value [3]?
A: Its value is 9.7 mm.

Q: And the “the diameter of cell growth inhibition zone, partial inhibition (value in brackets)” value [3]?
A: Its value is “(13.0) mm”.

Q: And the “the diameter of cell growth inhibition zone” value [4]?
A: Its value is 0 mm.

Q: What about the “the diameter of cell growth inhibition zone” value [6] of the same compound?
A: The value was 0 mm.

Q: What about the “the diameter of cell growth inhibition zone” value [7] of the same compound?
A: Its value is 0 mm.

Q: And the “The diameter of cell growth inhibition zone against M. Phlei” value ([8]; Table 5)?
A: The value was 16.86 mm.

Q: What about the “the diameter of cell growth inhibition zone” value [8] of the same compound?
A: Its value is 27.2 mm.

Q: Which results are given for `CCCCCCCCCCCCCC(CC(=O)OC1CN(C)C(C(OC2OC(CN)C(O)C2O)C2OC(n3ccc(=O)[nH]c3=O)C(O)C2O)C(=O)N(C)C1C(=O)O)OC(=O)CC(C)CC(=O)O` (centres unmarked) [Liposidomycins M-(III)]?
A: the diameter of cell growth inhibition zone [1]: 0 mm; the diameter of cell growth inhibition zone [3]: 14.8 mm; the diameter of cell growth inhibition zone [6]: 0 mm; the diameter of cell growth inhibition zone [7]: 0 mm; The diameter of cell growth inhibition zone against M. Phlei ([8]; Table 5): 15.49 mm; the diameter of cell growth inhibition zone [8]: 25.7 mm

Q: Which results are given for `CCCCCCCCCCCC(CC(=O)OC1CN(C)C(C(OC2OC(CN)C(O)C2O)C2OC(n3ccc(=O)[nH]c3=O)C(O)C2O)C(=O)N(C)C1C(=O)O)OC(=O)CC(C)CC(=O)O` (centres unmarked) [Liposidomycins C-(III)]?
A: the diameter of cell growth inhibition zone [1]: 0 mm; the diameter of cell growth inhibition zone [3]: 17.8 mm; the diameter of cell growth inhibition zone, partial inhibition (value in brackets) [3]: (23.7) mm; the diameter of cell growth inhibition zone [4]: 14.3 mm; the diameter of cell growth inhibition zone [6]: 0 mm; the diameter of cell growth inhibition zone [7]: 0 mm; The diameter of cell growth inhibition zone against M. Phlei ([8]; Table 5): 16.21 mm; the diameter of cell growth inhibition zone [8]: 30.3 mm

Q: With `CCCCCCCCC=CCCCC(CC(=O)OC1CN(C)C(C(OC2OC(CN)C(O)C2O)C2OC(n3ccc(=O)[nH]c3=O)C(O)C2O)C(=O)N(C)C1C(=O)O)OC(=O)CC(C)CC(=O)O` (centres unmarked) [Liposidomycins G-(III)] as the compound, how does the “The diameter of cell growth inhibition zone against M. Phlei” value ([8]; Table 5) read?
A: The value was 16.68 mm.

Q: Which results are given for Tunicamycin [TM]?
A: Inhibitory activity on peptidoglycan synthesis [2]: 10%; Cytotoxicity against BALB/3T3 (IC50) [5]: 0.05 µg/mL

Q: Which “the diameter of cell growth inhibition zone” value [1] does the source give for `CCCCCCCCC=CCC(CC(=O)OC1CN(C)C(C(OC2OC(CN)C(O)C2O)C2OC(n3ccc(=O)[nH]c3=O)C(O)C2O)C(=O)N(C)C1C(=O)O)OC(=O)CC(C)CC(=O)O` (centres unmarked) [Liposidomycins Z-(III)] here?
A: Its value is 0 mm.

Q: And the “the diameter of cell growth inhibition zone” value [3]?
A: Its value is 22.2 mm.

Q: And the “the diameter of cell growth inhibition zone” value [4]?
A: Its value is 18.8 mm.

Q: And the “the diameter of cell growth inhibition zone” value [6]?
A: Its value is 0 mm.

Q: What about the “the diameter of cell growth inhibition zone” value [7] of the same compound?
A: The value was 0 mm.

Q: And the “The diameter of cell growth inhibition zone against M. Phlei” value ([8]; Table 5)?
A: Its value is 13.74 mm.

Q: And the “the diameter of cell growth inhibition zone” value [8]?
A: Its value is 26.3 mm.

Q: Which “The diameter of cell growth inhibition zone against M. Phlei” value ([8]; Table 5) does the source give for `CC(C)CCCCCCCCCCC(CC(=O)OC1CN(C)C(C(OC2OC(CN)C(O)C2OS(=O)(=O)O)C2OC(n3ccc(=O)[nH]c3=O)C(O)C2O)C(=O)N(C)C1C(=O)O)OC(=O)CC(C)CC(=O)O` (centres unmarked) [Liposidomycins L] here?
A: The value was 14.08 mm.

Q: How did the “the diameter of cell growth inhibition zone” value [1] turn out when `CCCCCCCCC=CCC(CC(=O)OC1CN(C)C(C(OC2OC(CN)C(O)C2OS(=O)(=O)O)C2OC(n3ccc(=O)[nH]c3=O)C(O)C2O)C(=O)N(C)C1C(=O)O)OC(=O)CC(C)CC(=O)O` (centres unmarked) [Liposidomycins Z] was run?
A: Its value is 0 mm.

Q: And the “the diameter of cell growth inhibition zone” value [3]?
A: Its value is 0 mm.

Q: And the “the diameter of cell growth inhibition zone” value [6]?
A: Its value is 0 mm.

Q: What about the “the diameter of cell growth inhibition zone” value [7] of the same compound?
A: The value was 0 mm.

Q: What about the “The diameter of cell growth inhibition zone against M. Phlei” value ([8]; Table 5) of the same compound?
A: The value was 0 mm.

Q: `CCCCCCCCCCCC(CC(=O)OC1CN(C)C(C(OC2OC(CN)C(O)C2OS(=O)(=O)O)C2OC(n3ccc(=O)[nH]c3=O)C(O)C2O)C(=O)N(C)C1C(=O)O)OC(=O)CC(C)CC(=O)O` (centres unmarked) [Liposidomycins C, reference compound] was tested. Which “the diameter of cell growth inhibition zone” value [1] did it give?
A: Its value is 0 mm.

Q: What about the “the diameter of cell growth inhibition zone” value [3] of the same compound?
A: The value was 0 mm.

Q: What about the “the diameter of cell growth inhibition zone” value [4] of the same compound?
A: Its value is 0 mm.

Q: And the “the diameter of cell growth inhibition zone” value [6]?
A: The value was 0 mm.

Q: What about the “the diameter of cell growth inhibition zone” value [7] of the same compound?
A: The value was 0 mm.

Q: What about the “The diameter of cell growth inhibition zone against M. Phlei” value ([8]; Table 5) of the same compound?
A: The value was 0 mm.

Q: And the “the diameter of cell growth inhibition zone” value [8]?
A: Its value is 22.1 mm.

Q: `CCCCCC=CCC=CCCCC(CC(=O)OC1CN(C)C(C(OC2OC(CN)C(O)C2OS(=O)(=O)O)C2OC(n3ccc(=O)[nH]c3=O)C(O)C2O)C(=O)N(C)C1C(=O)O)OC(=O)CC(C)CC(=O)O` (centres unmarked) [Liposidomycins A, reference compound] was tested. Which “the diameter of cell growth inhibition zone” value [1] did it give?
A: The value was 0 mm.

Q: What about the “Inhibitory activity on peptidoglycan synthesis” value [2] of the same compound?
A: The value was 95%.

Q: What about the “the diameter of cell growth inhibition zone” value [3] of the same compound?
A: The value was 0 mm.

Q: And the “Cytotoxicity against BALB/3T3 (IC50)” value [5]?
A: The value was greater than 25 µg/mL.

Q: What about the “the diameter of cell growth inhibition zone” value [6] of the same compound?
A: Its value is 0 mm.

Q: And the “the diameter of cell growth inhibition zone” value [7]?
A: The value was 0 mm.

Q: And the “The diameter of cell growth inhibition zone against M. Phlei” value ([8]; Table 5)?
A: The value was 0 mm.

Q: And the “The diameter of cell growth inhibition zone against M. Phlei” value ([8]; Table 6)?
A: Its value is 0 mm.

Q: And the “the diameter of cell growth inhibition zone” value [8]?
A: The value was 18.9 mm.

Q: Which “The diameter of cell growth inhibition zone against M. Phlei” value ([8]; Table 5) does the source give for `CCCCCC=CCC=CCC(CC(=O)OC1CN(C)C(C(OC2OC(CN)C(O)C2O)C2OC(n3ccc(=O)[nH]c3=O)C(O)C2O)C(=O)N(C)C1C(=O)O)OC(=O)CC(C)CC(=O)O` (centres unmarked) [Liposidomycins Y-(III)] here?
A: Its value is 0 mm.

Q: How did the “the diameter of cell growth inhibition zone” value [1] turn out when `CCCCCC=CCC=CCCCCCC(CC(=O)OC1CN(C)C(C(OC2OC(CN)C(O)C2OS(=O)(=O)O)C2OC(n3ccc(=O)[nH]c3=O)C(O)C2O)C(=O)N(C)C1C(=O)O)OC(=O)CC(C)CC(=O)O` (centres unmarked) [Liposidomycins K] was run?
A: Its value is 0 mm.

Q: What about the “the diameter of cell growth inhibition zone” value [6] of the same compound?
A: Its value is 0 mm.

Q: What about the “the diameter of cell growth inhibition zone” value [7] of the same compound?
A: The value was 0 mm.

Q: What about the “The diameter of cell growth inhibition zone against M. Phlei” value ([8]; Table 5) of the same compound?
A: Its value is 13.15 mm.

Q: What about the “the diameter of cell growth inhibition zone” value [8] of the same compound?
A: Its value is 28.6 mm.
